Results published in PMC11241008, “Response Plasticity of Drosophila Olfactory Sensory Neurons” (International Journal of Molecular Sciences, 2024).

Tests used:
[1] = biological target: T1, Or56a (Drosophila melanogaster, UniProt Q9V8Y7); experiment: GCaMP6f calcium imaging of native OSN somata, open antenna; conditions: agonist; Drosophila Ringer pH 7.3; Hill coefficient 0.6; concentration as applied; n = 9
T1 construct: native receptor in ab4B olfactory sensory neurons of excised open antenna, with endogenous Orco; GCaMP6f calcium reporter; no heterologous expression; with Odorant receptor coreceptor
T1 sequence (Q9V8Y7 1-419): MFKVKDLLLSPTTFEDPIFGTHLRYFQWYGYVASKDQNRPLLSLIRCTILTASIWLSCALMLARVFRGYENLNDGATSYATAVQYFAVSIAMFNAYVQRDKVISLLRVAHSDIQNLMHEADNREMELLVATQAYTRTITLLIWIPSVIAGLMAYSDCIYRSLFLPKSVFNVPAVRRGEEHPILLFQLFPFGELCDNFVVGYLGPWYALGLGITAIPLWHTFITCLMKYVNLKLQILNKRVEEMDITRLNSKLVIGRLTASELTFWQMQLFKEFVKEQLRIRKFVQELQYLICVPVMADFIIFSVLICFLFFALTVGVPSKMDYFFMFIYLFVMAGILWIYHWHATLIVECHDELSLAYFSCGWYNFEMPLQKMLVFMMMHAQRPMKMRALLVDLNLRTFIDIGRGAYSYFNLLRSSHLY
T1 sequence (Q9VNB5 1-486 partner): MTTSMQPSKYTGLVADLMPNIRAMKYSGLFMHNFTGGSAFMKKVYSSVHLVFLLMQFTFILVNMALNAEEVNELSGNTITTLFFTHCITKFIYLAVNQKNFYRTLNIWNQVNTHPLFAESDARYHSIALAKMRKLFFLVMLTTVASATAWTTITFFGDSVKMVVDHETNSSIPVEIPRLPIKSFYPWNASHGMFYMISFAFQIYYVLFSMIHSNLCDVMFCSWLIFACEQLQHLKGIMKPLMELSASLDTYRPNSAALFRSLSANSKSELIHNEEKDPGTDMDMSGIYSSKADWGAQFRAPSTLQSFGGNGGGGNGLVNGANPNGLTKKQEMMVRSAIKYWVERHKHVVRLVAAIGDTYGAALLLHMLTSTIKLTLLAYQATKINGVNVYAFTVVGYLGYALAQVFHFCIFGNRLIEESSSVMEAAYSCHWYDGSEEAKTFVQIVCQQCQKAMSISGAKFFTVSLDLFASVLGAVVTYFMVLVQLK

[2] = biological target: T2, Or22a (Drosophila melanogaster, UniProt P81909); experiment: as above; conditions: agonist; Drosophila Ringer pH 7.3; Hill coefficient 0.8; concentration as applied; n = 12
T2 construct: native receptor in ab3A olfactory sensory neurons of excised open antenna, with endogenous Orco; GCaMP6f calcium reporter; no heterologous expression; with Odorant receptor coreceptor
T2 sequence (P81909 1-397): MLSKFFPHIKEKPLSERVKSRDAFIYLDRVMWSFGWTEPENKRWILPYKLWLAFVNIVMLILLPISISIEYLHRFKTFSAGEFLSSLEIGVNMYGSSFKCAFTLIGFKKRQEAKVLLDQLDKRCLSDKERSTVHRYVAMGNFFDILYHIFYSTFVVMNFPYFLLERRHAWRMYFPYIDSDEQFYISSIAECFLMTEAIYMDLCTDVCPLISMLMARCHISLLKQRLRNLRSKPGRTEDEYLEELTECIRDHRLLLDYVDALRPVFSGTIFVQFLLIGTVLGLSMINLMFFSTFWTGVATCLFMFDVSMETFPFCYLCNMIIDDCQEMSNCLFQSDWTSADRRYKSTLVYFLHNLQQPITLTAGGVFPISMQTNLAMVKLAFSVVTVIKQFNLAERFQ
T2 sequence (Q9VNB5 1-486 partner): T1 sequence (Q9VNB5 1-486 partner)

Row | Compound | EC50 [1] [µM] | EC50 [2] [µM]
1 | CC1CCCC2(C)CCCCC12O (racemic) [geosmin] | 0.025 | –
2 | CCCCCC(=O)OCC [ethyl hexanoate] | – | 1.5
